One may read the IC50 as the concentration needed to halve the response being measured. Read a low IC50 as higher potency.

For the test, the target named is PI3Kβ (Homo sapiens (Human), UniProt P42338). Nature of the test: PI3K isoform TR-FRET enzymatic assay (PI3Kβ). The settings on record: 2× Km ATP, 30 minutes at 25° C. It is filed as biochemical. The method, boiled down: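 IC50 came from four-parameter dose-response fits, normalized between DMSO and 1 μM wortmannin controls. The read-out was TR-FRET (615/665 nm) of PIP3 displacing fluorescent PIP3 from Europium GRP-1 after 10 mM EDTA termination. Compounds were incubated with purified heterodimeric PI3Kβ for 30 min at 25° C.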
In general terms: In TR-FRET formats the signal depends on donor and acceptor labels being close together.

PI3Kβ, sequence (P42338 whole entry, canonical isoform): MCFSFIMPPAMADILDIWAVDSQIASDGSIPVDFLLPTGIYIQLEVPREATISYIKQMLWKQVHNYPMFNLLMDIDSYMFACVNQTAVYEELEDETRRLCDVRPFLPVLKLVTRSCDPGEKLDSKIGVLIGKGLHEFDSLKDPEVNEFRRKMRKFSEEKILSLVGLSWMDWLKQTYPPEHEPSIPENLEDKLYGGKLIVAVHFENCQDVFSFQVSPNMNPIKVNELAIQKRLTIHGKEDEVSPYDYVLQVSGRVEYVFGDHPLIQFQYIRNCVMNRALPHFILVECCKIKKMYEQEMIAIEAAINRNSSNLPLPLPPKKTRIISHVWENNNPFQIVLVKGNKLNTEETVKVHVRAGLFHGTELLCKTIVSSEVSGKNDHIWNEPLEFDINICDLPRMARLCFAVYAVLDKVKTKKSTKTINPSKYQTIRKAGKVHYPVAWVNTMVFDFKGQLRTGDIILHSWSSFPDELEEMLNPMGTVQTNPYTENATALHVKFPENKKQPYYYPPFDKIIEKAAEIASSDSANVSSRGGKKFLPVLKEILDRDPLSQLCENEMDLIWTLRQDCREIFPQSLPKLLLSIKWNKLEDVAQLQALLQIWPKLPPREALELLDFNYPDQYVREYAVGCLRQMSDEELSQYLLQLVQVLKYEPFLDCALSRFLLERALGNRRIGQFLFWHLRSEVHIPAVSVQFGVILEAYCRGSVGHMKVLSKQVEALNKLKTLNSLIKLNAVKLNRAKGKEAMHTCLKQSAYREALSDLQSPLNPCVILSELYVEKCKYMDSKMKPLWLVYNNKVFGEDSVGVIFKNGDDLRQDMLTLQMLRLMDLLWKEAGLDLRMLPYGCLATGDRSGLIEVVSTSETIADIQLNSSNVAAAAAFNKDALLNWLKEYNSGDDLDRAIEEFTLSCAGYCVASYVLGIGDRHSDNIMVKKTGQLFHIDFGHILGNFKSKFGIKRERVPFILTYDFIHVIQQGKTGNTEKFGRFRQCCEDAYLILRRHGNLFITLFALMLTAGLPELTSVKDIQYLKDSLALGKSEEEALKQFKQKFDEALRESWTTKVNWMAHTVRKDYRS
PI3Kβ, sequence (P27986 whole entry partner, canonical isoform): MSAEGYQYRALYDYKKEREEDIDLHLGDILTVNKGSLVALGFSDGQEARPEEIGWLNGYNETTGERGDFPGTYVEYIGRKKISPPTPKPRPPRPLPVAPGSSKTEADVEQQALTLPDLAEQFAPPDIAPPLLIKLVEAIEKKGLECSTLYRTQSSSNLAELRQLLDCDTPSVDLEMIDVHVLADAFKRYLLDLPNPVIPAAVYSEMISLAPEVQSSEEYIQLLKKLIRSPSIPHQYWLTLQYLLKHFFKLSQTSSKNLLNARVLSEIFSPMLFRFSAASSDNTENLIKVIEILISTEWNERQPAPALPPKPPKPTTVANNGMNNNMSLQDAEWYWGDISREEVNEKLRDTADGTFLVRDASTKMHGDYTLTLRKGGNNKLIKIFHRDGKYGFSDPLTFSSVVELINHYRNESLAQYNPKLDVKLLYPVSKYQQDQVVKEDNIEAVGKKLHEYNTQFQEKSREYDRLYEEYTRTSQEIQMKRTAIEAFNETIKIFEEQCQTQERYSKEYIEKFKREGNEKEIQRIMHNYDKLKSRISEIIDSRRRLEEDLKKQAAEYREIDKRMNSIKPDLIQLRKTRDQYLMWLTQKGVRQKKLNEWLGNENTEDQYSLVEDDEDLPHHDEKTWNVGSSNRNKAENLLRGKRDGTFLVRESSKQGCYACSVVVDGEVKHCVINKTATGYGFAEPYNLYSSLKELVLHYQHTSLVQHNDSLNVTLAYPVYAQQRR

With `Cc1nc2c(-c3cnn(C)c3)cc(N3CCOCC3)cc2n1-c1ccnc2c(Cl)cccc12` [Example 313, 4-(1-(8-chloroquinolin-4-yl)-2-methyl-4-(1-methyl-1H-pyrazol-4-yl)-1H-benzo[d]imidazol-6-yl)morpholine], inhibition was half-maximal at 9800 nM (IC50). To `Cc1nc2c(-c3ccco3)cc(N3CCOCC3)cc2n1-c1ccnc2c(Cl)cccc12` [Example 274, 4-[3-(8-chloroquinolin-4-yl)-7-(furan-2-yl)-2-methylbenzimidazol-5-yl]morpholine] belongs 27 nM; to `CCCc1nc2c(-c3ncco3)cc(N3CCOCC3)cc2n1-c1ccnc2c(F)cccc12` [Example 223, 4-[3-(8-fluoroquinolin4-yl)-7-(1,3-oxazol-2-yl)-2-propylbenzimidazol-5-yl]morpholine], 9 nM; to `Cc1nnc(-c2cc(N3CCOCC3)cc3c2nc(C)n3-c2c(F)cnc3ccccc23)[nH]1` [Example 154, 4-(1-(3-fluoroquinolin-4-yl)-2-methyl-4-(5-methyl-4H-1,2,4-triazol-3-yl)-1H-benzo[d]imidazol-6-yl)morpholine], 2200 nM. To `Cc1nc2c(-c3nnc[nH]3)cc(N3CCOCC3)cc2n1-c1ccnc2c(F)c(F)ccc12` (atropisomer, axis not shown) [Compound 352, 4-[3-(7,8-difluoroquinolin-4-yl)-2-methyl-7-(4H-1,2,4-triazol-3-yl)benzimidazol-5-yl]morpholine] belongs 7 nM; to `Cc1nc2c(-c3nnc(N)[nH]3)cc(N3CCOCC3)cc2n1-c1ccnc2c(F)ccc(F)c12` [Example 393, 5-(1-(5,8-difluoroquinolin-4-yl)-2-methyl-6-morpholino-1H-benzo[d]imidazol-4-yl)-4H-1,2,4-triazol-3-amine], 21 nM; to `Cc1nc2c(-c3ccccn3)cc(N3CCOCC3)cc2n1-c1ccnc2c(Cl)cccc12` [Example 323, 4-[3-(8-chloroquinolin-4-yl)-2-methyl-7-pyridin-2-ylbenzimidazol-5-yl]morpholine], 417 nM. The same measure for `CCc1nc2c(F)cccc2c(-n2c(C)nc3c(-c4nc(C)n[nH]4)cc(N4CCOCC4)cc32)c1C` [Example 80, 4-[3-(2-ethyl-8-fluoro-3-methylquinolin-4-yl)-2-methyl-7-(3-methyl-1H-1,2,4-triazol-5-yl)benzimidazol-5-yl]morpholine]: 61 nM; for `Fc1ccc2c(-n3c(CC4CC4)nc4c(-c5nnc[nH]5)cc(N5CCOCC5)cc43)ccnc2c1Cl` [Example 31, 4-(1-(8-chloro-7-fluoroquinolin-4-yl)-2-(cyclopropylmethyl)-4-(4H-1,2,4-triazol-3-yl)-1H-benzo[d]imidazol-6-yl)morpholine]: 9 nM; for `Cc1nc2c(-c3cscn3)cc(N3CCOCC3)cc2n1-c1ccnc2c(Cl)cccc12` [Example 270, 4-[3-(8-chloroquinolin-4-yl)-2-methyl-7-(1,3-thiazol-4-yl)benzimidazol-5-yl]morpholine]: 36 nM. Compound `CCCc1nc2c(-c3nnc[nH]3)cc(N3CCOCC3)cc2n1-c1ccnc2c(Cl)cccc12` [Compound 1, 4-(1-(8-chloroquinolin-4-yl)-2-propyl-4-(4H-1,2,4-triazol-3-yl)-1H-benzo[d]imidazol-6-yl)morpholine 2,2,2-trifluoroacetate] registered an IC50 of 4 nM. `Cc1nc2c(-c3ccc[nH]3)cc(N3CCOCC3)cc2n1-c1ccnc2c(Cl)cccc12` [Example 261, 4-[3-(8-chloroquinolin-4-yl)-2-methyl-7-(1H-pyrrol-2-yl)benzimidazol-5-yl]morpholine]: the IC50 worked out at 24 nM. As for `Fc1ccc(Cl)c2nccc(-n3c(C4CC4)nc4c(-c5nnc(Cl)[nH]5)cc(N5CCOCC5)cc43)c12` [Example 174, 4-(4-(5-chloro-4H-1,2,4-triazol-3-yl)-1-(8-chloro-5-fluoroquinolin-4-yl)-2-cyclopropyl-1H-benzo[d]imidazol-6-yl)morpholine], the IC50 is 13 nM. Turning to `Cc1nc2c(-c3cncn3C)cc(N3CCOCC3)cc2n1-c1ccnc2c(Cl)cccc12` [Example 202, 4-[3-(8-chloroquinolin-4-yl)-2-methyl-7-(3-methylimidazol-4-yl)benzimidazol-5-yl]morpholine], the IC50 is above 10000 nM. The same measure for `Cc1nc2c(-c3nnc[nH]3)cc(N3CCOCC3)c(F)c2n1-c1ccnc2c(Cl)ccc(F)c12` [Example 150, 4-(1-(8-chloro-5-fluoroquinolin-4-yl)-7-fluoro-2-methyl-4-(4H-1,2,4-triazol-3-yl)-1H-benzo[d]imidazol-6-yl)morpholine]: 27 nM; for `CCCc1nc2c(-c3nnc[nH]3)cc(N3CCOCC3)cc2n1-c1ccnc2c(F)ccc(F)c12` [Example 45, 4-(1-(5,8-difluoroquinolin-4-yl)-2-propyl-4-(4H-1,2,4-triazol-3-yl)-1H-benzo[d]imidazol-6-yl)morpholine]: 19 nM; for `Cc1nc2c(-c3ncco3)cc(N3CCOCC3)cc2n1-c1ccnc2c(Cl)cccc12` [Example 204, 4-[3-(8-chloroquinolin-4-yl)-2-methyl-7-(1,3-oxazol-2-yl)benzimidazol-5-yl]morpholine]: 8 nM. The same measure for `Clc1cccc2c(-n3c(-c4cccnc4)nc4c(-c5nnc[nH]5)cc(N5CCOCC5)cc43)ccnc12` [Example 10, 4-(1-(8-chloroquinolin-4-yl)-2-(pyridin-3-yl)-4-(4H-1,2,4-triazol-3-yl)-1H-benzo[d]imidazol-6-yl)morpholine]: 41 nM; for `Cc1nc2c(Cl)cccc2c(-n2c(C)nc3c(-c4nnc[nH]4)cc(N4CCOCC4)cc32)c1C` [Example 70, 4-[3-(8-chloro-2,3-dimethylquinolin-4-yl)-2-methyl-7-(4H-1,2,4-triazol-3-yl)benzimidazol-5-yl]morpholine]: 36 nM. To `Clc1cccc2c(-n3c(C4CC4)nc4c(-c5nnc[nH]5)cc(N5CCOCC5)cc43)ccnc12` [Example 110, 4-[3-(8-chloroquinolin-4-yl)-2-cyclopropyl-7-(4H-1,2,4-triazol-3-yl)benzimidazol-5-yl]morpholine] belongs 19 nM; to `Cc1nnc(-c2cc(N3CCOCC3)cc3c2nc(C)n3-c2ccnc3c(F)cccc23)[nH]1` [Example 130, 4-[3-(8-fluoroquinolin-4-yl)-2-methyl-7-(5-methyl-4H-1,2,4-triazol-3-yl)benzimidazol-5-yl]morpholine], 87 nM; to `Fc1ccc(F)c2c(-n3cnc4c(-c5nnc[nH]5)cc(N5CCOCC5)cc43)ccnc12` [Example 28, 4-(1-(5,8-difluoroquinolin-4-yl)-4-(4H-1,2,4-triazol-3-yl)-1H-benzo[d]imidazol-6-yl)morpholine], 3 nM. The compound `Fc1ccc(F)c2c(-n3cnc4c(-c5cnc(Cl)[nH]5)cc(N5CCOCC5)cc43)ccnc12` [Example 308, 4-[7-(2-chloro-1H-imidazol-5-yl)-3-(5,8-difluoroquinolin-4-yl)benzimidazol-5-yl]morpholine] yielded an IC50 of 6 nM.

On to `Cc1ncc(-c2cc(N3CCOCC3)cc3c2nc(C)n3-c2ccnc3c(Cl)cccc23)s1` [Example 297, 4-[3-(8-chloroquinolin-4-yl)-2-methyl-7-(2-methyl-1,3-thiazol-5-yl)benzimidazol-5-yl]morpholine], for which the IC50 was 3800 nM. As to `FC(F)c1cc(-n2cnc3c(-c4nnc[nH]4)cc(N4CCOCC4)cc32)c2cccc(Cl)c2n1` [Example 88, 4-[3-[8-chloro-2-(difluoromethyl)quinolin-4-yl]-7-(4H-1,2,4-triazol-3-yl)benzimidazol-5-yl]morpholine], the IC50 was determined as 4 nM. `Fc1cccc2c(-n3c(CC4CC4)nc4c(-c5cnc(Cl)[nH]5)cc(N5CCOCC5)cc43)ccnc12` [Example 304, 4-[7-(2-chloro-1H-imidazol-5-yl)-2-(cyclopropylmethyl)-3-(8-fluoroquinolin-4-yl)benzimidazol-5-yl]morpholine] yielded an IC50 of 81 nM. To `Cc1n[nH]c(-c2cc(N3CCOCC3)cc3c2nc(C)n3-c2c(C)cnc3ccccc23)n1` [Example 74, 4-[2-methyl-3-(3-methylquinolin-4-yl)-7-(3-methyl-1H-1,2,4-triazol-5-yl)benzimidazol-5-yl]morpholine] belongs 62 nM; to `Cc1cc(-n2cnc3c(-c4cnc[nH]4)cc(N4CCOCC4)cc32)c2c(Cl)ccc(Cl)c2n1` [Example 330], 5 nM; to `CCCc1nc2c(-c3cnc(Cl)[nH]3)cc(N3CCOCC3)cc2n1-c1ccnc2c(F)ccc(F)c12` [Example 299, 4-[7-(2-chloro-1H-imidazol-5-yl)-3-(5,8-difluoroquinolin-4-yl)-2-propylbenzimidazol-5-yl]morpholine], 17 nM. `Fc1ccc(F)c2c(-n3c(C4CC4)nc4c(-c5cnc(Cl)[nH]5)cc(N5CCOCC5)cc43)ccnc12` (atropisomer, axis not shown) [Compound 342, 4-[7-(2-chloro-1H-imidazol-5-yl)-2-cyclopropyl-3-(5,8-difluoroquinolin-4-yl)benzimidazol-5-yl]morpholine]: the IC50 was above 10000 nM.

With `Cc1csc(-c2cc(N3CCOCC3)cc3c2nc(C)n3-c2ccnc3c(Cl)ccc(F)c23)n1` [Example 238, 4-[3-(8-chloro-5-fluoroquinolin-4-yl)-2-methyl-7-(4-methyl-1,3-thiazol-2-yl)benzimidazol-5-yl]morpholine], the IC50 amounted to 4 nM. In turn, `Cc1nc2c(-c3nnc[nH]3)cc(N3CCOCC3)cc2n1-c1ccnc2c(Cl)cc(F)cc12` [Example 35, 4-(1-(8-chloro-6-fluoroquinolin-4-yl)-2-methyl-4-(4H-1,2,4-triazol-3-yl)-1H-benzo[d]imidazol-6-yl)morpholine] registered a half-maximal inhibitory concentration (IC50) of 11 nM.

The values above are taken from US10214519B2, “Phosphatidylinositol 3-kinase inhibitors” (Gilead Sciences, Inc., priority 2016, dated 2019).
